Test results: patent US6995143B2, “Macrolides with antibacterial activity” (Basilea Pharmaceutica AG, priority 2002, dated 2006)
Converted amounts (≈) assume the structure as drawn.

What was measured:
Type in all cases: cell-based
[1] = test system: Escherichia coli ATCC 25922; test: MIC, standard microdilution technique
Method in brief: (§1)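 Antibacterial activity was determined by broth microdilution following the NCCLS approved standard M7-A5 (5th edition, 2000) for dilution susceptibility testing of aerobically growing bacteria.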

[2] = test system: Staphylococcus aureus 1086; test: MIC, standard microdilution technique
Method in brief: as §1

[3] = test system: Staphylococcus aureus 745; test: MIC, standard microdilution technique
Method in brief: as §1

[4] = test system: Staphylococcus aureus ATCC 29213; test: MIC, standard microdilution technique
Method in brief: as §1

[5] = test system: Streptococcus pneumoniae 12288; test: MIC, standard microdilution technique
Method in brief: as §1

[6] = test system: Streptococcus pneumoniae SL199T; test: MIC, standard microdilution technique
Method in brief: as §1

[7] = test system: Streptococcus pneumoniae l/l; test: MIC, standard microdilution technique
Method in brief: as §1

[8] = test system: Streptococcus pneumoniae ¼; test: MIC, standard microdilution technique
Method in brief: as §1

[9] = test system: Haemophilus influenzae 12214; test: MIC, standard agar dilution method using HTM medium
Method in brief: (§2)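 MICs were read following the NCCLS approved standard (M7-A5) for dilution susceptibility testing of aerobically growing bacteria. Compounds were tested against Haemophilus influenzae.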

[10] = test system: Haemophilus influenzae B1501; test: as above
Method in brief: as §2

[11] = test system: Haemophilus influenzae QK12/87; test: as above
Method in brief: as §2

[12] = test system: Haemophilus influenzae QK50; test: as above
Method in brief: as §2

| SMILES | minimum inhibitory concentration (MIC), Strain D [1] [µg/mL] | minimum inhibitory concentration (MIC), Strain B [2] | minimum inhibitory concentration (MIC), Strain C [3] [µg/mL] | minimum inhibitory concentration (MIC), Strain A [4] | minimum inhibitory concentration (MIC), Strain H [5] [µg/mL] | minimum inhibitory concentration (MIC), Strain G [6] [µg/mL] | minimum inhibitory concentration (MIC), Strain E [7] | minimum inhibitory concentration (MIC), Strain F [8] | minimum inhibitory concentration (MIC), Strain K [9] [µg/mL] | minimum inhibitory concentration (MIC), Strain M [10] [µg/mL] | minimum inhibitory concentration (MIC), Strain I [11] [µg/mL] | minimum inhibitory concentration (MIC), Strain L [12] [µg/mL] |
| --- | --- | --- | --- | --- | --- | --- | --- | --- | --- | --- | --- | --- |
| CC[C@H]1OC(=O)[C@H](C)C(=O)[C@H](C)[C@@H](O[C@@H]2O[C@H](C)C[C@H](N(C)C)[C@H]2O)[C@](C)(OC)C[C@@H](C)C(=O)[C@H](C)[C@H]2[C@@H](SCC(=O)NCc3ncc[nH]3)C(=O)O[C@@]21C [Example 35] | >32 | 8 µg/mL (≈ 10.2 µM) | >32 | 8 µg/mL (≈ 10.2 µM) | >32 | 16 (≈ 20.5 µM) | <=0.06 μg/ml | >32 µg/mL | 32 (≈ 41 µM) | 16 (≈ 20.5 µM) | 16 (≈ 20.5 µM) | 16 (≈ 20.5 µM) |
| CC[C@H]1OC(=O)[C@H](C)C(=O)[C@H](C)[C@@H](O[C@@H]2O[C@H](C)C[C@H](N(C)C)[C@H]2O)[C@](C)(OC)C[C@@H](C)C(=O)[C@H](C)[C@H]2[C@@H](SCC(=O)Nc3ccc4ccccc4n3)C(=O)O[C@@]21C [Example 37] | >32 | <=0.06 μg/ml | >32 | 0.125 µg/mL (≈ 0.151 µM) | >32 | >32 | <=0.06 μg/ml | 4 µg/mL (≈ 4.83 µM) | 16 (≈ 19.3 µM) | 8 (≈ 9.66 µM) | 8 (≈ 9.66 µM) | 8 (≈ 9.66 µM) |
| CC[C@H]1OC(=O)[C@H](C)C(=O)[C@H](C)[C@@H](O[C@@H]2O[C@H](C)C[C@H](N(C)C)[C@H]2O)[C@](C)(OC)C[C@@H](C)C(=O)[C@H](C)[C@H]2[C@@H](SCC(=O)Nc3ccc4ncccc4c3)C(=O)O[C@@]21C [Example 38] | >32 | <=0.06 μg/ml | >32 | <=0.06 μg/ml | 32 (≈ 38.6 µM) | 8 (≈ 9.66 µM) | <=0.06 μg/ml | 4 µg/mL (≈ 4.83 µM) | 16 (≈ 19.3 µM) | 8 (≈ 9.66 µM) | 8 (≈ 9.66 µM) | 16 (≈ 19.3 µM) |
| CC[C@H]1OC(=O)[C@H](C)C(=O)[C@H](C)[C@@H](O[C@@H]2O[C@H](C)C[C@H](N(C)C)[C@H]2O)[C@](C)(OC)C[C@@H](C)C(=O)[C@H](C)[C@H]2[C@@H](SCC(=O)Nc3cnc4ccccc4c3)C(=O)O[C@@]21C [Example 39] | >32 | <=0.06 μg/ml | >32 | <=0.06 μg/ml | 32 (≈ 38.6 µM) | 8 (≈ 9.66 µM) | <=0.06 μg/ml | 32 µg/mL (≈ 38.6 µM) | 16 (≈ 19.3 µM) | 8 (≈ 9.66 µM) | 16 (≈ 19.3 µM) | 16 (≈ 19.3 µM) |
| CC[C@H]1OC(=O)[C@H](C)C(=O)[C@H](C)[C@@H](O[C@@H]2O[C@H](C)C[C@H](N(C)C)[C@H]2O)[C@](C)(OC)C[C@@H](C)C(=O)[C@H](C)[C@H]2[C@@H](SCCC(=O)Nc3ccc4ncccc4c3)C(=O)O[C@@]21C [Example 41] | >32 | <=0.06 μg/ml | >32 | <=0.06 μg/ml | >32 | 8 (≈ 9.5 µM) | <=0.06 μg/ml | 16 µg/mL (≈ 19 µM) | 8 (≈ 9.5 µM) | 8 (≈ 9.5 µM) | 8 (≈ 9.5 µM) | 16 (≈ 19 µM) |

The next lines start with the values.

| minimum inhibitory concentration (MIC), Strain D [1] [µg/mL] | minimum inhibitory concentration (MIC), Strain B [2] | minimum inhibitory concentration (MIC), Strain C [3] [µg/mL] | minimum inhibitory concentration (MIC), Strain A [4] | minimum inhibitory concentration (MIC), Strain H [5] [µg/mL] | minimum inhibitory concentration (MIC), Strain G [6] [µg/mL] | minimum inhibitory concentration (MIC), Strain E [7] | minimum inhibitory concentration (MIC), Strain F [8] | minimum inhibitory concentration (MIC), Strain K [9] [µg/mL] | minimum inhibitory concentration (MIC), Strain M [10] [µg/mL] | minimum inhibitory concentration (MIC), Strain I [11] [µg/mL] | minimum inhibitory concentration (MIC), Strain L [12] [µg/mL] | SMILES |
| --- | --- | --- | --- | --- | --- | --- | --- | --- | --- | --- | --- | --- |
| >32 | 0.125 µg/mL (≈ 0.151 µM) | >32 | 0.125 µg/mL (≈ 0.151 µM) | 4 (≈ 4.83 µM) | 0.5 (≈ 0.604 µM) | <=0.06 μg/ml | 0.125 µg/mL (≈ 0.151 µM) | 4 (≈ 4.83 µM) | 4 (≈ 4.83 µM) | 4 (≈ 4.83 µM) | 4 (≈ 4.83 µM) | CC[C@H]1OC(=O)[C@H](C)C(=O)[C@H](C)[C@@H](O[C@@H]2O[C@H](C)C[C@H](N(C)C)[C@H]2O)[C@](C)(OC)C[C@@H](C)C(=O)[C@H](C)[C@H]2[C@@H](SCC(=O)Nc3cccc4cnccc34)C(=O)O[C@@]21C [Example 40] |
| >32 | 0.125 µg/mL (≈ 0.145 µM) | >32 | 0.5 µg/mL (≈ 0.578 µM) | >32 | 16 (≈ 18.5 µM) | <=0.06 μg/ml | <=0.06 μg/ml | 16 (≈ 18.5 µM) | 8 (≈ 9.25 µM) | 16 (≈ 18.5 µM) | 16 (≈ 18.5 µM) | CC[C@H]1OC(=O)[C@H](C)C(=O)[C@H](C)[C@@H](O[C@@H]2O[C@H](C)C[C@H](N(C)C)[C@H]2O)[C@](C)(OC)C[C@@H](C)C(=O)[C@H](C)[C@H]2[C@@H](S(=O)(=O)CCNC(=O)c3ccc4nonc4c3)C(=O)O[C@@]21C [Example 44] |
| >32 | 0.25 µg/mL (≈ 0.304 µM) | >32 | 0.25 µg/mL (≈ 0.304 µM) | >32 | 16 (≈ 19.5 µM) | <=0.06 μg/ml | 0.5 µg/mL (≈ 0.608 µM) | 8 (≈ 9.73 µM) | 4 (≈ 4.87 µM) | 8 (≈ 9.73 µM) | 8 (≈ 9.73 µM) | CC[C@H]1OC(=O)[C@H](C)C(=O)[C@H](C)[C@@H](O[C@@H]2O[C@H](C)C[C@H](N(C)C)[C@H]2O)[C@](C)(OC)C[C@@H](C)C(=O)[C@H](C)[C@H]2[C@@H](SCC(=O)c3ccc(OC)cc3OC)C(=O)O[C@@]21C [Example 45] |
| 32 (≈ 39.8 µM) | 1 µg/mL (≈ 1.24 µM) | >32 | 1 µg/mL (≈ 1.24 µM) | 8 (≈ 9.94 µM) | 0.5 (≈ 0.621 µM) | <=0.06 μg/ml | 0.125 µg/mL (≈ 0.155 µM) | 4 (≈ 4.97 µM) | 2 (≈ 2.48 µM) | 1 (≈ 1.24 µM) | 1 (≈ 1.24 µM) | CC[C@H]1OC(=O)[C@H](C)C(=O)[C@H](C)[C@@H](O[C@@H]2O[C@H](C)C[C@H](N(C)C)[C@H]2O)[C@](C)(OC)C[C@@H](C)C(=O)[C@H](C)[C@H]2[C@@H](SCCNc3ncnc4[nH]cnc34)C(=O)O[C@@]21C [Example 51] |
| >32 | <=0.06 μg/ml | >32 | 0.125 µg/mL (≈ 0.138 µM) | 8 (≈ 8.81 µM) | 4 (≈ 4.41 µM) | <=0.06 μg/ml | 0.125 µg/mL (≈ 0.138 µM) | 16 (≈ 17.6 µM) | 8 (≈ 8.81 µM) | 8 (≈ 8.81 µM) | 8 (≈ 8.81 µM) | CC[C@H]1OC(=O)[C@H](C)C(=O)[C@H](C)[C@@H](O[C@@H]2O[C@H](C)C[C@H](N(C)C)[C@H]2O)[C@](C)(OC)C[C@@H](C)C(=O)[C@H](C)[C@H]2[C@@H](SCCNc3nc(C)nc4ccc(Br)cc34)C(=O)O[C@@]21C [Example 52] |
